Results published in publication PMC9747611 (Hypertension Research, 2022).

How the values were obtained:
Format in all cases: in vivo, human
[1] = Safety: adverse events, ECG, vital signs
Procedure: (§1) Plasma PD measures included concentrations of aldosterone, 18-hydroxycorticosterone, corticosterone, 11-deoxycorticosterone, cortisol (free and total), 11-deoxycortisol, ACTH, sodium, chloride, and potassium. AUCs were calculated using a noncompartmental analysis and the linear trapezoidal/linear interpolation method. Urine PD measures included concentrations of aldosterone, cortisol (free and total), tetrahydroaldosterone, sodium, chloride, potassium, creatinine, and phosphorus. Other PD measures were seated, orthostatic, and positional changes in vital signs, as well as changes in body weight and BMI. Safety assessments involved adverse events, physical examinations, ECGs, orthostatic vital signs, and clinical laboratory evaluations.
Subjects who received placebo were pooled into 2 treatment groups: placebo with low-salt diet and placebo with normal-salt diet. Descriptive statistics were calculated for PK, PD, and safety measures. […] Data are presented as change from baseline in least squares mean (90% CI) AUC0-12h of plasma aldosterone on days 1 and 10. The results of the exploratory dose proportionality power model were assessed using the Smith criteria (0.9031, 1.0969) and the less stringent Hummel criteria (0.6990, 1.3010).

[2] = Plasma electrolytes and renal function (pharmacodynamics)
Procedure: as §1

[3] = Urine pharmacokinetics (fraction of dose excreted renally)
Procedure: Plasma and urine samples were analyzed to measure concentrations of baxdrostat and its primary metabolite (CIN-107-M), aldosterone and its precursors, cortisol and its precursor, and ACTH using a validated liquid chromatography tandem mass spectrometry method (LC-MS/MS). The quantifiable ranges for both baxdrostat and its metabolite CIN-107-M in plasma and urine were 0.05 to 50 ng/mL (low range) and 5 to 2500 ng/mL (high range), using baxdrostat-d5 and CIN-107-M-d3, respectively, as the internal standards. Plasma samples were extracted by protein precipitation with methanol, followed by analysis by LC-MS/MS with electrospray ionization in positive mode and multiple reaction monitoring. All scheduled study-related laboratory tests were performed by Medpace Reference Laboratories (Cincinnati, OH, USA), Medpace Bioanalytical Laboratories (Cincinnati, OH, USA), Mercy Health—West Hospital Laboratory (Cincinnati, OH, USA), or Laboratory Corporation of America (Dublin, OH, USA).
The cumulative amount of drug excreted in urine on day 1 (Ae,D1) and day 10 (Ae,D10), fraction of dose excreted renally on day 1 (Fe,D1) and day 10 (Fe,D10), and renal clearance on day 1 (CLR,D1) and day 10 (CLR,D10) composed single-dose urine PK parameters.

[4] = 0.5 mg once daily 10 days, normal-salt diet, n = 9
[5] = 1.5 mg once daily 10 days, normal-salt diet, n = 9
[6] = 2.5 mg once daily 10 days, low-salt diet, n = 9
[7] = 2.5 mg once daily 10 days, normal-salt diet, n = 6
[8] = 5.0 mg once daily 10 days, low-salt diet, n = 9
[9] = 0.5-5.0 mg once daily for 10 days

For CCC(=O)N[C@@H]1CCCc2c(-c3ccc4c(c3)CCC(=O)N4C)cncc21 [baxdrostat], the Abdominal pain [1, 4] was 0 (0.0) n (%), the Anxiety [1, 4] was 0 (0.0) n (%) and the “Any AE” value [1, 4] was 1 (11.1) n (%). The “Any TEAE” value [1, 4] was 1 (11.1) n (%), the “Any TEAE leading to death” value [1, 4] was 0 (0.0) n (%) and the “Any TEAE leading to discontinuation” value [1, 4] was 0 (0.0) n (%). For the same compound, the “Any drug-related treatment-emergent SAE” value [1, 4] was 0 (0.0) n (%), the “Any treatment-emergent SAE” value [1, 4] was 0 (0.0) n (%) and the Back pain [1, 4] was 0 (0.0) n (%). The Constipation [1, 4] was 0 (0.0) n (%), the Dizziness [1, 4] was 0 (0.0) n (%) and the Dizziness postural [1, 4] was 0 (0.0) n (%). For the same compound, the Dry throat [1, 4] was 0 (0.0) n (%), the Dysphonia [1, 4] was 0 (0.0) n (%) and the Eye irritation [1, 4] was 0 (0.0) n (%). The Headache [1, 4] was 1 (11.1) n (%), the Nausea [1, 4] was 0 (0.0) n (%) and the Palpitations [1, 4] was 0 (0.0) n (%). For the same compound, the Presyncope [1, 4] was 0 (0.0) n (%), the Rhinitis [1, 4] was 0 (0.0) n (%) and the Ventricular tachycardia [1, 4] was 0 (0.0) n (%). The Viral infection [1, 4] was 0 (0.0) n (%), the Abdominal pain [1, 5] was 0 (0.0) n (%) and the Anxiety [1, 5] was 0 (0.0) n (%). For the same compound, the “Any AE” value [1, 5] was 1 (11.1) n (%), the “Any TEAE” value [1, 5] was 1 (11.1) n (%) and the “Any TEAE leading to death” value [1, 5] was 0 (0.0) n (%). For the same compound, the “Any TEAE leading to discontinuation” value [1, 5] was 0 (0.0) n (%), the “Any drug-related treatment-emergent SAE” value [1, 5] was 0 (0.0) n (%) and the “Any treatment-emergent SAE” value [1, 5] was 0 (0.0) n (%). The Back pain [1, 5] was 0 (0.0) n (%), the Constipation [1, 5] was 1 (11.1) n (%) and the Dizziness [1, 5] was 0 (0.0) n (%). For the same compound, the Dizziness postural [1, 5] was 0 (0.0) n (%), the Dry throat [1, 5] was 0 (0.0) n (%) and the Dysphonia [1, 5] was 0 (0.0) n (%). The Eye irritation [1, 5] was 0 (0.0) n (%), the Headache [1, 5] was 0 (0.0) n (%) and the Nausea [1, 5] was 0 (0.0) n (%). For the same compound, the Palpitations [1, 5] was 0 (0.0) n (%), the Presyncope [1, 5] was 0 (0.0) n (%) and the Rhinitis [1, 5] was 0 (0.0) n (%). The Ventricular tachycardia [1, 5] was 0 (0.0) n (%), the Viral infection [1, 5] was 0 (0.0) n (%) and the Abdominal pain [1, 6] was 0 (0.0) n (%). The Anxiety [1, 6] was 0 (0.0) n (%), the “Any AE” value [1, 6] was 3 (33.3) n (%) and the “Any TEAE” value [1, 6] was 3 (33.3) n (%). For the same compound, the “Any TEAE leading to death” value [1, 6] was 0 (0.0) n (%), the “Any TEAE leading to discontinuation” value [1, 6] was 0 (0.0) n (%) and the “Any drug-related treatment-emergent SAE” value [1, 6] was 0 (0.0) n (%). The “Any treatment-emergent SAE” value [1, 6] was 0 (0.0) n (%), the Back pain [1, 6] was 0 (0.0) n (%) and the Constipation [1, 6] was 0 (0.0) n (%). The Dizziness [1, 6] was 0 (0.0) n (%), the Dizziness postural [1, 6] was 1 (11.1) n (%) and the Dry throat [1, 6] was 0 (0.0) n (%). For the same compound, the Dysphonia [1, 6] was 0 (0.0) n (%), the Eye irritation [1, 6] was 0 (0.0) n (%) and the Headache [1, 6] was 1 (11.1) n (%). For the same compound, the Nausea [1, 6] was 0 (0.0) n (%), the Palpitations [1, 6] was 0 (0.0) n (%) and the Presyncope [1, 6] was 1 (11.1) n (%). For the same compound, the Rhinitis [1, 6] was 0 (0.0) n (%), the Ventricular tachycardia [1, 6] was 0 (0.0) n (%) and the Viral infection [1, 6] was 1 (11.1) n (%). For the same compound, the Abdominal pain [1, 7] was 0 (0.0) n (%), the Anxiety [1, 7] was 1 (16.7) n (%) and the “Any AE” value [1, 7] was 3 (50.0) n (%). The “Any TEAE” value [1, 7] was 3 (50.0) n (%), the “Any TEAE leading to death” value [1, 7] was 0 (0.0) n (%) and the “Any TEAE leading to discontinuation” value [1, 7] was 0 (0.0) n (%). For the same compound, the “Any drug-related treatment-emergent SAE” value [1, 7] was 0 (0.0) n (%), the “Any treatment-emergent SAE” value [1, 7] was 0 (0.0) n (%) and the Back pain [1, 7] was 0 (0.0) n (%). The Constipation [1, 7] was 0 (0.0) n (%), the Dizziness [1, 7] was 1 (16.7) n (%) and the Dizziness postural [1, 7] was 2 (33.3) n (%). For the same compound, the Dry throat [1, 7] was 1 (16.7) n (%), the Dysphonia [1, 7] was 0 (0.0) n (%) and the Eye irritation [1, 7] was 1 (16.7) n (%). For the same compound, the Headache [1, 7] was 1 (16.7) n (%), the Nausea [1, 7] was 0 (0.0) n (%) and the Palpitations [1, 7] was 0 (0.0) n (%). The Presyncope [1, 7] was 0 (0.0) n (%), the Rhinitis [1, 7] was 1 (16.7) n (%) and the Ventricular tachycardia [1, 7] was 0 (0.0) n (%). For the same compound, the Viral infection [1, 7] was 0 (0.0) n (%), the Abdominal pain [1, 8] was 1 (11.1) n (%) and the Anxiety [1, 8] was 0 (0.0) n (%). The “Any AE” value [1, 8] was 3 (33.3) n (%), the “Any TEAE” value [1, 8] was 3 (33.3) n (%) and the “Any TEAE leading to death” value [1, 8] was 0 (0.0) n (%). The “Any TEAE leading to discontinuation” value [1, 8] was 0 (0.0) n (%), the “Any drug-related treatment-emergent SAE” value [1, 8] was 0 (0.0) n (%) and the “Any treatment-emergent SAE” value [1, 8] was 0 (0.0) n (%). The Back pain [1, 8] was 1 (11.1) n (%), the Constipation [1, 8] was 0 (0.0) n (%) and the Dizziness [1, 8] was 1 (11.1) n (%). The Dizziness postural [1, 8] was 0 (0.0) n (%), the Dry throat [1, 8] was 0 (0.0) n (%) and the Dysphonia [1, 8] was 1 (11.1) n (%). For the same compound, the Eye irritation [1, 8] was 0 (0.0) n (%), the Headache [1, 8] was 1 (11.1) n (%) and the Nausea [1, 8] was 0 (0.0) n (%). The Palpitations [1, 8] was 0 (0.0) n (%), the Presyncope [1, 8] was 0 (0.0) n (%) and the Rhinitis [1, 8] was 0 (0.0) n (%). The Ventricular tachycardia [1, 8] was 0 (0.0) n (%), the Viral infection [1, 8] was 0 (0.0) n (%) and the “QT prolongation (electrocardiograms)” value [1, 9] was “no QT prolongation”. For the same compound, the “changes in seated heart rate or BP” value [1, 9] was “no clinically significant changes”, the “subjects with a TEAE considered related to the study drug” value ([1]; all baxdrostat groups pooled) was 6 (14.3%) and the “severity of TEAEs” value ([1]; all subjects receiving baxdrostat) was “mild”. The “change in plasma potassium levels” value [2, 9] was “increases”, the “change in plasma sodium levels” value [2, 9] was “mild dose-dependent decreases” and the “reduction in glomerular filtration rate” value ([2]; once daily for 10 days) was under 15%. For the same compound, the “baxdrostat dose recovered unchanged in the urine” value ([3]; day 1) was “Approximately 7%” and the “baxdrostat dose recovered unchanged in the urine” value ([3]; steady state (day 10)) was ~ 32%.
